Laboratory results reported in patent US11234919B2, “Compound produced by means of marine microorganism and composition for improving skin wrinkles, enhancing elasticity and skin whitening comprising same compound as active ingredient” (KOREA INSTITUTE OF OCEAN SCIENCE & TECHNOLOGY, priority 2017, dated 2022).

Tests used:
[1] = system: human-derived fibroblasts; assay: Increase in collagen synthesis, PICP EIA kit, human fibroblast culture; type: cell-based; conditions: final concentration 20 ppm, incubation one day; for Amount of collagen production: amount of collagen production as absorbance at 450 nm; for Collagen increase (%): ratio of collagen production relative to control
Procedure: Out of the compounds represented by Formula 2, the compounds according to the present disclosure shown in Table 1 were tested for collagen synthesis stimulating activity by addition to cultures of human-derived fibroblasts.
The measurement of synthesized collagen was conducted by quantification using a procollagen type I C-peptide enzyme immunoassay kit (PICP EIA kit).
Collagen synthetic ability was evaluated by selecting the concentrations causing no toxicity on the basis of cytotoxicity results.
In the test, the final concentration of the compounds of the present disclosure was set to 20 ppm. Each sample was added to the culture medium of human fibroblasts, followed by incubation for one day, and then the culture was taken out, and the degree of collagen synthesis was measured at each concentration through the PICP EIA kit by using a spectrometer at 450 nm. For comparison of effects, the degree of collagen synthesis was measured by the same method on a culture medium of fibroblasts with nothing added (control) and a sample with vitamin C added to a final concentration of 20 ppm. The amount of collagen production was measured as a UV absorbance, and the rate of increase in collagen production was calculated as a ratio of collagen production relative to the collagen production of the control.

B-16 melanoma cells = assay: Melanogenesis inhibition in B-16 melanoma cell culture; type: cell-based; conditions: for Amount of melanin produced: absorbance at 400 nm per 10^6 cells, incubation 3 days
Procedure: The compounds shown in Table 1 were set to have final concentrations of 2 ppm and 20 ppm, and each of the compounds was added to a culture medium of B-16 melanoma cells, followed by incubation for 3 days. Thereafter, the cells were treated with trypsin, detached from the incubator, and centrifuged, and then melanin was extracted therefrom. The melanin was dissolved by addition of 1 mL of a sodium hydroxide solution (1 N) and boiling for 10 min, and then the absorbance was measured at 400 nm using a spectrometer, thereby determining the amount of melanin produced. The amount of melanin was measured as an absorbance per unit cell count (10^6 cells), and the amount of melanin production relative to the control with nothing added was calculated as an inhibition (%). The test was repeated three times.
To compare melanogenesis inhibiting activity of the compounds according to the present disclosure, 20 ppm arbutin was also tested by the same method, and the results are also shown in Table 3.

[2] = melanin production relative to control with nothing added, final concentration 2 ppm, 3 days
[3] = melanin production relative to control with nothing added, final concentration 20 ppm, 3 days

| Structure (SMILES) | Amount of collagen production [1] | Collagen increase (%) [1] [%] | Amount of melanin produced (B-16 melanoma cells; final concentration 2 ppm) | Amount of melanin produced (B-16 melanoma cells; final concentration 20 ppm) | Inhibition (%) (B-16 melanoma cells; [2]) | Inhibition (%) (B-16 melanoma cells; [3]) | inhibition at 20 ppm (B-16 melanoma cells; Mus musculus, B16, 72 h, melanin production relative to control with nothing added, final concentration 20 ppm, 3 days) [%] |
| --- | --- | --- | --- | --- | --- | --- | --- |
| C/C=C(\C)c1oc(=O)c(C)c(O)c1C [Compound 2] | 287.24 | 147.2 | 0.048 ± 0.001 | 0.046 ± 0.001 | 20.0 | 23.5 | – |
| C/C(=C\CO)c1cc(O)cc(=O)o1 [Compound 6] | 287.61 | 152.1 | 0.048 ± 0.001 | 0.046 ± 0.001 | 18.3 | 23.5 | – |
| C=C(C)c1oc(=O)cc(O)c1C(=O)O [Compound 4] | 287.61 | 152.1 | 0.048 ± 0.001 | 0.046 ± 0.001 | 20.0 | 23.5 | – |
| C/C=C(\C)c1oc(=O)c(C)cc1C [Compound 5] | 287.65 | 152.2 | 0.049 ± 0.001 | 0.047 ± 0.001 | 18.3 | 21.8 | – |
| OC[C@H]1O[C@@H](Oc2ccc(O)cc2)[C@H](O)[C@@H](O)[C@@H]1O [Arbutin, arbutin, reference compound] | – | – | – | 0.056 ± 0.001 | – | – | 6.5 |
| CC/C=C(\C)c1oc(=O)c(CC)c(O)c1CC [Compound 3] | 287.24 | 147.2 | 0.048 ± 0.001 | 0.047 ± 0.001 | 20.0 | 21.8 | – |
| CC/C=C(\C)c1oc(=O)c(CC)c(C)c1CC [Compound 10] | 287.24 | 147.2 | 0.049 ± 0.001 | 0.047 ± 0.001 | 18.3 | 21.8 | – |
| CCc1c(C)c(C(=O)O)c(/C(C)=C/CO)oc1=O [Compound 9] | 287.61 | 152.1 | 0.049 ± 0.001 | 0.047 ± 0.001 | 18.3 | 21.8 | – |
| O=C1O[C@H]([C@@H](O)CO)C(O)=C1O [Vitamin C, vitamin C, reference compound] | 217.35 | 115.3 | – | – | – | – | – |
| C=C(C)c1cc(O)cc(=O)o1 [Compound 1] | 287.65 | 152.2 | 0.047 ± 0.001 | 0.046 ± 0.001 | 21.8 | 23.5 | – |
